One data set deals with hCA I (Homo sapiens, UniProt P00915). Kind of data set: stopped-flow CO2 hydrase assay, hCA I.
The next data set has as its target hCA II (Homo sapiens, UniProt P00918). As to the kind of experiment: stopped-flow CO2 hydrase assay, hCA II.
The next data set has as its target hCA IX (Homo sapiens, UniProt Q16790). Kind of data set: stopped-flow CO2 hydrase assay, hCA IX.

The melting point is the temperature of the solid-liquid transition. Usually Ki stands for a measure of affinity in units of concentration, obtained from inhibition or displacement. A low value points to a stronger hold on the target.

Sequence of hCA I (P00915 whole entry): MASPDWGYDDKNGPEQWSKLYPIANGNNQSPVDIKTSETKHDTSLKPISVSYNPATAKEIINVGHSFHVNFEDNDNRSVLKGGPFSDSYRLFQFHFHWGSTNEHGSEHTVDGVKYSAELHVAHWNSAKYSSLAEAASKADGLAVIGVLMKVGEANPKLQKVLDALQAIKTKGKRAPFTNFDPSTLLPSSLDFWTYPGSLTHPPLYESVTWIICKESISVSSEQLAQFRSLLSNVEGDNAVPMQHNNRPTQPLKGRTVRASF
Protocol for hCA II: An Applied Photophysics stopped-flow instrument was used for assaying the CA catalysed CO2 hydration activity. […] In particular, CO2 was bubbled in distilled deionised water for 30 min so that the water was saturated (the concentration at a specific temperature is known from literature). In addition, a CO2 assay kit (from Sigma) was used to measure the concentration in variously diluted solutions obtained from the saturated one (which was kept at the same temperature and a constant bubbling during the experiments). […] The uncatalysed rates were determined in the same manner and subtracted from the total observed rates. Stock solutions of inhibitor (0.1 mM) were prepared in distilled-deionised water and dilutions up to 0.01 nM were done thereafter with distilled-deionised water. Inhibitor and enzyme solutions were pre-incubated together for 15 min–2 h (or longer, i.e. 4–6 h) at room temperature (at 4 °C for the incubation periods longer than 15 min) prior to assay, in order to allow for the formation of the E-I complex. […]
Protocol for hCA IX: An Applied Photophysics stopped-flow instrument was used for assaying the CA catalysed CO2 hydration activity. […] In particular, CO2 was bubbled in distilled deionised water for 30 min so that the water was saturated (the concentration at a specific temperature is known from literature). In addition, a CO2 assay kit (from Sigma) was used to measure the concentration in variously diluted solutions obtained from the saturated one (which was kept at the same temperature and a constant bubbling during the experiments). […] The uncatalysed rates were determined in the same manner and subtracted from the total observed rates. Stock solutions of inhibitor (0.1 mM) were prepared in distilled-deionised water and dilutions up to 0.01 nM were done thereafter with distilled-deionised water. Inhibitor and enzyme solutions were pre-incubated together for 15 min–2 h (or longer, i.e. 4–6 h) at room temperature (at 4 °C for the incubation periods longer than 15 min) prior to assay, in order to allow for the formation of the E-I complex. The inhibition constants were obtained by non-linear least-squares methods using PRISM 3 and the Cheng-Prusoff equation[25] ^, [26], as reported earlier, and represent the mean from at least three different determinations. hCA I was purchased by Sigma-Aldrich and used without further purification, whereas all the other hCA isoforms were recombinant ones obtained in-house as reported earlier[27] ^, [28].

For the molecule `NS(=O)(=O)c1ccc(-n2cc(-c3ccccn3)nn2)cc1` [3a, 4-(4–(2-pyridyl)-1H-1,2,3-triazol-1-yl)-benzenesulfonamide], the melting point is 244 to 248 °C. Besides, on hCA I, the inhibition constant (Ki) is 0.181 µM. The Ki at hCA II was determined as 0.0041 µM. Moreover, the inhibition constant (Ki) on hCA IX was 0.0028 µM. The “Selectivity ratio I/IX” value on hCA IX (KI hCA I / KI hCA IX) is recorded as 64.75. Also, on hCA IX (KI hCA II / KI hCA IX), the “Selectivity ratio II/IX” value worked out at 1.46. The “fold higher affinity than its rhenium complex 4a” value at hCA IX (hCA IX, Ki(3a) vs Ki(4a)) is reported as 7 fold.
`NS(=O)(=O)c1ccc(Cn2cc(-c3ccccn3)nn2)cc1` [3b, 4–(4-(2-pyridyl)-1H-1,2,3-triazol-1-ylmethyl)-benzenesulfonamide]: the melting point was in the range of 192 to 195 °C. Further, affinity on hCA I was put at a Ki of 0.305 µM. Moreover, the affinity on hCA II, expressed as Ki, was 0.0561 µM.

The record behind these values is article PMC6407592, “Novel Re(I) tricarbonyl coordination compounds based on 2-pyridyl-1,2,3-triazole derivatives bearing a 4-amino-substituted benzenesulfonamide arm: synthesis, crystal structure, computational studies and inhibitory activity against carbonic anhydrase I, II, and IX isoforms†” (Journal of Enzyme Inhibition and Medicinal Chemistry, 2019).
